Values quoted from earlier work in patent US10694745B2, “Method for controlling rust” (UPL LIMITED, priority 2013, dated 2020).

What was measured:
Phakopsora pachyrhizi = details: single fungicide
soybean = details: in vivo

SMILES	control of soybean rust (Phakopsora pachyrhizi)	phytotoxicity (soybean)
CO/C=C(/C(=O)OC)c1ccccc1Oc1cc(Oc2ccccc2C#N)ncn1 [Azoxystrobin]	good control	
O=C(Nc1ccccc1-c1ccc(Cl)cc1)c1cccnc1Cl [Boscalid]	moderate control	
c1ccc2[nH]c(-c3cscn3)nc2c1 [Thiabendazole]		phytotoxic
